According to patent US8399465B2, “Compounds with two fused bicyclic heteroaryl moieties as modulators of leukotriene A4 hydrolase” (Janssen Pharmaceutica NV, priority 2009, dated 2013):
Structures can show the parent of a compound that is named as a salt.

Key:
[1] = molecular target: T1, recombinant human LTA4 hydrolase (rhLTA4H) (Homo sapiens, UniProt P09960); assay: Recombinant human LTA4 hydrolase assay for LTA4 hydrolase inhibitor activity; format: biochemical; settings: rhLTA4H, LTB4 by immunoassay; single determination or average of two or more; mark after value = form tested: ′ free base, ″ hydrochloride, ^ formate; read-out: IC50
T1 construct: made in house; host or cells: Spodoptera frugiperda (Sf-9) cells, baculovirus (pFastBac1)
T1 sequence (P09960 1-611): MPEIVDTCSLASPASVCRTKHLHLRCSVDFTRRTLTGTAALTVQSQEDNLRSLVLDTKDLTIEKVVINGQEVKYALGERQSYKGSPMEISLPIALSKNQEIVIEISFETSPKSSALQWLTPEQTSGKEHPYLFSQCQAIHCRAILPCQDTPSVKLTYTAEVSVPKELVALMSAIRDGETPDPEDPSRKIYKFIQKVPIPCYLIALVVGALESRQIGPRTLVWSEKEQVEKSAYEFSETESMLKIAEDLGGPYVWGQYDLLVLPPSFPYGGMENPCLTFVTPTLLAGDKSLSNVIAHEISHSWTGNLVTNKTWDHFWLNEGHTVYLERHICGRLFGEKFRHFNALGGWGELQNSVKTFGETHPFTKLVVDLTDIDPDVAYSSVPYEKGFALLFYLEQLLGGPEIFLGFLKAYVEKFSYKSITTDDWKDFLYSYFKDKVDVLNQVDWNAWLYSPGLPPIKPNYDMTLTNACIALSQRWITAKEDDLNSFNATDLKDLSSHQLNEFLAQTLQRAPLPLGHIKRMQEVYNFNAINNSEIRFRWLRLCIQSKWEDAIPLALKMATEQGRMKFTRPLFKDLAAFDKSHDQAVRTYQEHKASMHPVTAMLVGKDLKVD
Method in brief: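 Baculovirus/Sf-9-expressed human LTA4H (10 ng) was preincubated 10 min at rt with compound in assay buffer (10% DMSO in compound dilution), then reacted 30 min at rt with LTA4 free acid made from its methyl ester. LTB4 produced was measured by ELISA after dilution; IC50 from non-linear regression, single or averaged determinations.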

[2] = tested on: LTB4 production in murine blood (LTA4H); assay: LTB4 production by calcium ionophore-stimulated murine blood for LTA4H inhibitor activity; format: cell-based, CD-1 mice; settings: Mus musculus; murine blood diluted 1 in 15, A23187 stimulated; single determination or average; mark after value = form tested: ′ free base, ″ hydrochloride, ^ formate; read-out: IC50
Method in brief: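 Heparinized blood from CD-1 mice was preincubated with compound for 15 min at 37° C, then stimulated with calcium ionophore A23187 (final 7 μg/mL) for 30 min. Centrifugation stopped the reaction, and LTB4 in the supernatant was measured by enzyme immunoassay. Values are single determinations or means of two or more.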

| SMILES | IC50 [1] [nM] | IC50 [2] [nM] |
| --- | --- | --- |
| CN(CCC(=O)O)Cc1coc2cc(Oc3nc4ncccc4s3)ccc12 [Example 335, 3-{Methyl-[6-(thiazolo[4,5-b]pyridin-2-yloxy)-benzofuran-3-ylmethyl]-amino}-propionic acid formate] | 5 | 200 |
| CC(=O)N1C[C@H]2C[C@@H]1CN2Cc1cc2ncc(Oc3nc4ncccc4s3)cc2o1 [Example 340, (1R,4R)-1-{5-[6-(Thiazolo[4,5-b]pyridin-2-yloxy)-furo[3,2-b]pyridin-2-ylmethyl]-2,5-diaza-bicyclo[2.2.1]hept-2-yl}-ethanone formate] | 12 | 610 |
| O=C1CN(Cc2coc3cc(Oc4nc5ncccc5s4)ccc23)CCN1 [Example 342, 4-[6-(Thiazolo[4,5-b]pyridin-2-yloxy)-benzofuran-3-ylmethyl]-piperazin-2-one] | 16 | 230 |
| c1ccc(CNCc2coc3cc(Oc4nc5ncccc5s4)ccc23)cc1 [Example 344, Benzyl-[6-(thiazolo[4,5-b]pyridin-2-yloxy)-benzofuran-3-ylmethyl]-amine] | 21 | 100 |
| Fc1ccc(CNCc2coc3cc(Oc4nc5ncccc5s4)ccc23)cc1 [Example 345, (4-Fluoro-benzyl)-[6-(thiazolo[4,5-b]pyridin-2-yloxy)-benzofuran-3-ylmethyl]-amine] | 7 | 72 |
| OC1(c2ccc(Cl)cc2)CCN(Cc2coc3cc(Oc4nc5ncccc5s4)ccc23)CC1 [Example 347, 4-(4-Chloro-phenyl)-1-[6-(thiazolo[4,5-b]pyridin-2-yloxy)-benzofuran-3-ylmethyl]-piperidin-4-ol] | 24 | 130 |
| OC1(c2ccc(Br)cc2)CCN(Cc2coc3cc(Oc4nc5ncccc5s4)ccc23)CC1 [Example 348, 4-(4-Bromo-phenyl)-1-[6-(thiazolo[4,5-b]pyridin-2-yloxy)-benzofuran-3-ylmethyl]-piperidin-4-ol] | 67 | 360 |
| CC1CN(Cc2coc3cc(Oc4nc5ncccc5s4)ccc23)CC(C)O1 (centres unmarked) [Example 349, 2-[3-(2,6-Dimethyl-morpholin-4-ylmethyl)-benzofuran-6-yloxy]-thiazolo[4,5-b]pyridine] | 26 | 860 |
| FC1CCCN(Cc2coc3cc(Oc4nc5ncccc5s4)ccc23)C1 (centres unmarked) [Example 350, 2-[3-(3-Fluoro-piperidin-1-ylmethyl)-benzofuran-6-yloxy]-thiazolo[4,5-b]pyridine] | 26 | 38 |
| O=c1[nH]ncn1C1CCN(Cc2coc3cc(Oc4nc5ncccc5s4)ccc23)CC1 [Example 351, 4-{1-[6-(Thiazolo[4,5-b]pyridin-2-yloxy)-benzofuran-3-ylmethyl]-piperidin-4-yl}-2,4-dihydro-[1,2,4]triazol-3-one] | 2 | 94 |
| CC(=O)N1CC2CC(CN(Cc3coc4cc(Oc5nc6ncccc6s5)ccc34)C2)C1 [Example 352, 1-{7-[6-(Thiazolo[4,5-b]pyridin-2-yloxy)-benzofuran-3-ylmethyl]-3,7-diaza-bicyclo[3.3.1]non-3-yl}-ethanone] | 50 | 110 |
| CCN(C(C)=O)C1CCN(Cc2coc3cc(Oc4nc5ncccc5s4)ccc23)CC1 [Example 353, N-Ethyl-N-{1-[6-(thiazolo[4,5-b]pyridin-2-yloxy)-benzofuran-3-ylmethyl]-piperidin-4-yl}-acetamide] | 6 | 22 |
| O=C(C1CCOC1)N1CC2CN(Cc3coc4cc(Oc5nc6ncccc6s5)ccc34)CC2C1 (centres unmarked) [Example 354, (Tetrahydro-furan-3-yl)-{5-[6-(thiazolo[4,5-b]pyridin-2-yloxy)-benzofuran-3-ylmethyl]-hexahydro-pyrrolo[3,4-c]pyrrol-2-yl}-methanone] | 7 | 200 |
| O=C(CO)N1CC2CN(Cc3coc4cc(Oc5nc6ncccc6s5)ccc34)CC2C1 (centres unmarked) [Example 355, 2-Hydroxy-1-{5-[6-(thiazolo[4,5-b]pyridin-2-yloxy)-benzofuran-3-ylmethyl]-hexahydro-pyrrolo[3,4-c]pyrrol-2-yl}-ethanone] | 3 | 68 |
| O=C(c1cnccn1)N1C[C@@H]2C[C@H]1CN2Cc1coc2cc(Oc3nc4ncccc4s3)ccc12 [Example 356, (1S,4S)-Pyrazin-2-yl-{5-[6-(thiazolo[4,5-b]pyridin-2-yloxy)-benzofuran-3-ylmethyl]-2,5-diaza-bicyclo[2.2.1]hept-2-yl}-methanone] | 18 | 260 |
| O=C(C1CCC1)N1C[C@@H]2C[C@H]1CN2Cc1coc2cc(Oc3nc4ncccc4s3)ccc12 [Example 357, (1S,4S)-Cyclobutyl-{5-[6-(thiazolo[4,5-b]pyridin-2-yloxy)-benzofuran-3-ylmethyl]-2,5-diaza-bicyclo[2.2.1]hept-2-yl}-methanone] | 7 | 220 |
| O=C(c1ccno1)N1C[C@@H]2C[C@H]1CN2Cc1coc2cc(Oc3nc4ncccc4s3)ccc12 [Example 358, (1S,4S)-Isoxazol-5-yl-{5-[6-(thiazolo[4,5-b]pyridin-2-yloxy)-benzofuran-3-ylmethyl]-2,5-diaza-bicyclo[2.2.1]hept-2-yl}-methanone] | 9 | 14 |
| O=C(c1ccoc1)N1CC2CN(Cc3coc4cc(Oc5nc6ncccc6s5)ccc34)CC2C1 (centres unmarked) [Example 359, Furan-3-yl-{5-[6-(thiazolo[4,5-b]pyridin-2-yloxy)-benzofuran-3-ylmethyl]-hexahydro-pyrrolo[3,4-c]pyrrol-2-yl}-methanone] | 8 | 190 |
| COC(=O)c1ccc(CN2C[C@@H]3C[C@H]2CN3Cc2coc3cc(Oc4nc5ncccc5s4)ccc23)cc1 [Example 360, (1S,4S)-4-{5-[6-(Thiazolo[4,5-b]pyridin-2-yloxy)-benzofuran-3-ylmethyl]-2,5-diaza-bicyclo[2.2.1]hept-2-ylmethyl}-benzoic acid methyl ester] | 17 | 350 |
| CN(C)Cc1coc2cc(Oc3nc4ncccc4s3)ccc12 [Example 361, Dimethyl-[6-(thiazolo[4,5-b]pyridin-2-yloxy)-benzofuran-3-ylmethyl]-amine] | 20 | 10 |
| CS(=O)(=O)NC1CCN(Cc2coc3cc(Oc4nc5ccccc5s4)ccc23)CC1 [Example 363, N-{1-[6-(Benzothiazol-2-yloxy)-benzofuran-3-ylmethyl]-piperidin-4-yl}-methanesulfonamide] | 37 | 400 |
| CS(=O)(=O)NCCC1CCN(Cc2coc3cc(Oc4nc5ccccc5s4)ccc23)CC1 [Example 364, N-(2-{1-[6-(Benzothiazol-2-yloxy)-benzofuran-3-ylmethyl]-piperidin-4-yl}-ethyl)-methanesulfonamide] | 18 | 310 |
| CC(=O)NC1CCN(C(=O)c2coc3cc(Oc4nc5ncccc5s4)ccc23)CC1 [Example 368, N-{1-[6-(Thiazolo[4,5-b]pyridin-2-yloxy)-benzofuran-3-carbonyl]-piperidin-4-yl}-acetamide] | 26 | 170 |
| CC(C)N(C)C(=O)c1coc2cc(Oc3nc4ncccc4s3)ccc12 [Example 373, 6-(Thiazolo[4,5-b]pyridin-2-yloxy)-benzofuran-3-carboxylic acid isopropyl-methyl-amide] | 34 | 100 |
| NC(=O)N1C[C@@H]2C[C@H]1CN2C(=O)c1coc2cc(Oc3nc4ncccc4s3)ccc12 [Example 375, (1S,4S)-5-[6-(Thiazolo[4,5-b]pyridin-2-yloxy)-benzofuran-3-carbonyl]-2,5-diaza-bicyclo[2.2.1]heptane-2-carboxylic acid amide] | 41 | 610 |
| O=C(c1coc2cc(Oc3nc4ncccc4s3)ccc12)N1CCC(F)CC1 [Example 376, (4-Fluoro-piperidin-1-yl)-[6-(thiazolo[4,5-b]pyridin-2-yloxy)-benzofuran-3-yl]-methanone] | 13 | 85 |
| O=C(c1coc2cc(Oc3nc4ncccc4s3)ccc12)N1CCC(c2ccccc2)CC1 [Example 377, (4-Phenyl-piperidin-1-yl)-[6-(thiazolo[4,5-b]pyridin-2-yloxy)-benzofuran-3-yl]-methanone] | 20 | 410 |
| NC(=O)C1CCN(C(=O)c2coc3cc(Oc4nc5ncccc5s4)ccc23)CC1 [Example 378, 1-[6-(Thiazolo[4,5-b]pyridin-2-yloxy)-benzofuran-3-carbonyl]-piperidine-4-carboxylic acid amide] | 22 | 110 |
